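48-hour exposure; five concentrations; linearly interpolated endpoints. TGI is the concentration that stops growth completely.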
Tests used:
Experiment in all cases: DTP human tumour cell line panel, 48 h
NCI/ADR-RES ovarian = system: NCI/ADR-RES ovarian
MCF7 breast = system: MCF7 breast
RPMI-8226 leukemia = system: RPMI-8226 leukemia
MDA-MB-435 = system: MDA-MB-435
UACC-257 melanoma = system: UACC-257 melanoma
SK-OV-3 ovarian = system: SK-OV-3 ovarian
A549 NSCLC = system: A549 NSCLC
SN12C renal = system: SN12C renal
HCT-15 colon = system: HCT-15 colon
BT-549 breast = system: BT-549 breast
HT29 colon = system: HT29 colon
T-47D breast = system: T-47D breast
SK-MEL-2 melanoma = system: SK-MEL-2 melanoma
KM12 colon = system: KM12 colon
NCI-H460 lung = system: NCI-H460 lung
UACC-62 melanoma = system: UACC-62 melanoma
SW-620 colon = system: SW-620 colon
CCRF-CEM leukemia = system: CCRF-CEM leukemia
SF-268 CNS = system: SF-268 CNS
COLO 205 colon = system: COLO 205 colon
HL-60(TB) leukemia = system: HL-60(TB) leukemia
MALME-3M melanoma = system: MALME-3M melanoma
OVCAR-3 ovarian = system: OVCAR-3 ovarian
MOLT-4 leukemia = system: MOLT-4 leukemia
SNB-75 CNS = system: SNB-75 CNS
HOP-62 NSCLC = system: HOP-62 NSCLC
EKVX NSCLC = system: EKVX NSCLC
K-562 leukemia = system: K-562 leukemia
SF-295 CNS = system: SF-295 CNS
SR leukemia = system: SR leukemia
DU-145 prostate = system: DU-145 prostate
SNB-19 CNS = system: SNB-19 CNS
SK-MEL-5 melanoma = system: SK-MEL-5 melanoma
HCC-2998 colon = system: HCC-2998 colon
PC-3 prostate = system: PC-3 prostate
786-0 renal = system: 786-0 renal
A498 renal = system: A498 renal
U251 CNS = system: U251 CNS
MDA-N = system: MDA-N
HCT-116 colon = system: HCT-116 colon
SK-MEL-28 melanoma = system: SK-MEL-28 melanoma
UO-31 renal = system: UO-31 renal
M14 melanoma = system: M14 melanoma
CAKI-1 renal = system: CAKI-1 renal
MDA-MB-231 breast = system: MDA-MB-231 breast
SF-539 CNS = system: SF-539 CNS
RXF 393 renal = system: RXF 393 renal
ACHN renal = system: ACHN renal
OVCAR-5 ovarian = system: OVCAR-5 ovarian
TK-10 renal = system: TK-10 renal
OVCAR-8 ovarian = system: OVCAR-8 ovarian
IGROV1 ovarian = system: IGROV1 ovarian
LOX IMVI melanoma = system: LOX IMVI melanoma
NCI-H226 lung = system: NCI-H226 lung
OVCAR-4 ovarian = system: OVCAR-4 ovarian
NCI-H522 lung = system: NCI-H522 lung
NCI-H23 lung = system: NCI-H23 lung
HOP-92 NSCLC = system: HOP-92 NSCLC

C/C1=C\CC[C@@]2(C)O[C@@H]2C[C@@H]2[C@H](C/C(C)=C/CC1)OC(=O)C21CC1
TGI (NCI/ADR-RES ovarian): > 100 µM
TGI (MCF7 breast): > 100 µM
TGI (RPMI-8226 leukemia): 46.3 µM
TGI (MDA-MB-435): > 100 µM
TGI (UACC-257 melanoma): > 100 µM
TGI (SK-OV-3 ovarian): > 100 µM
TGI (A549 NSCLC): > 100 µM
TGI (SN12C renal): > 100 µM
TGI (HCT-15 colon): > 100 µM
TGI (BT-549 breast): > 100 µM
TGI (HT29 colon): > 100 µM
TGI (T-47D breast): > 100 µM
TGI (SK-MEL-2 melanoma): > 100 µM
TGI (KM12 colon): > 100 µM
TGI (NCI-H460 lung): > 100 µM
TGI (UACC-62 melanoma): > 100 µM
TGI (SW-620 colon): > 100 µM
TGI (CCRF-CEM leukemia): 65.8 µM
TGI (SF-268 CNS): > 100 µM
TGI (COLO 205 colon): > 100 µM
TGI (HL-60(TB) leukemia): 93.7 µM
TGI (MALME-3M melanoma): > 100 µM
TGI (OVCAR-3 ovarian): > 100 µM
TGI (MOLT-4 leukemia): 61.2 µM
TGI (SNB-75 CNS): > 100 µM
TGI (HOP-62 NSCLC): > 100 µM
TGI (EKVX NSCLC): > 100 µM
TGI (K-562 leukemia): 66.2 µM
TGI (SF-295 CNS): > 100 µM
TGI (SR leukemia): 48 µM
TGI (DU-145 prostate): > 100 µM
TGI (SNB-19 CNS): > 100 µM
TGI (SK-MEL-5 melanoma): > 100 µM
TGI (HCC-2998 colon): > 100 µM
TGI (PC-3 prostate): > 100 µM
TGI (786-0 renal): > 100 µM
TGI (A498 renal): > 100 µM
TGI (U251 CNS): > 100 µM
TGI (MDA-N): > 100 µM
TGI (HCT-116 colon): > 100 µM
TGI (SK-MEL-28 melanoma): > 100 µM
TGI (UO-31 renal): > 100 µM
TGI (M14 melanoma): > 100 µM
TGI (CAKI-1 renal): > 100 µM
TGI (MDA-MB-231 breast): > 100 µM
TGI (SF-539 CNS): > 100 µM
TGI (RXF 393 renal): > 100 µM
TGI (ACHN renal): > 100 µM
TGI (OVCAR-5 ovarian): > 100 µM
TGI (TK-10 renal): > 100 µM
TGI (OVCAR-8 ovarian): > 100 µM
TGI (IGROV1 ovarian): 72.7 µM

C=C(C)C12OC3(c4ccccc4)OC1C1C4OC4(CO)C(O)C4(O)C(=O)C(C)=CC4C1(O3)C(C)C2OC(=O)/C=C/C=C/c1ccccc1 (stereo unspecified)
TGI (NCI/ADR-RES ovarian): 1.38 µM
TGI (MCF7 breast): 0.911 µM
TGI (RPMI-8226 leukemia): 0.519 µM
TGI (MDA-MB-435): 0.742 µM
TGI (UACC-257 melanoma): 1.94 µM
TGI (SK-OV-3 ovarian): 4.73 µM
TGI (A549 NSCLC): 2.39 µM
TGI (SN12C renal): 0.37 µM
TGI (LOX IMVI melanoma): 411 nM
TGI (HCT-15 colon): 1.98 µM
TGI (BT-549 breast): 0.97 µM
TGI (HT29 colon): 0.22 µM
TGI (T-47D breast): 4.84 µM
TGI (SK-MEL-2 melanoma): 1.89 µM
TGI (KM12 colon): 0.862 µM
TGI (NCI-H460 lung): 3.04 µM
TGI (UACC-62 melanoma): 1.29 µM
TGI (CCRF-CEM leukemia): 1.5 µM
TGI (SF-268 CNS): 1.25 µM
TGI (COLO 205 colon): 0.0416 µM
TGI (HL-60(TB) leukemia): 0.107 µM
TGI (NCI-H226 lung): 1060 nM
TGI (MALME-3M melanoma): 1.24 µM
TGI (OVCAR-3 ovarian): 0.316 µM
TGI (MOLT-4 leukemia): 2.34 µM
TGI (SNB-75 CNS): 1.15 µM
TGI (OVCAR-4 ovarian): 697 nM
TGI (HOP-62 NSCLC): 1.65 µM
TGI (EKVX NSCLC): 1.13 µM
TGI (K-562 leukemia): 2.35 µM
TGI (SF-295 CNS): 1.09 µM
TGI (SR leukemia): 0.385 µM
TGI (DU-145 prostate): 1.47 µM
TGI (SNB-19 CNS): 5 µM
TGI (SK-MEL-5 melanoma): 0.989 µM
TGI (HCC-2998 colon): 0.246 µM
TGI (PC-3 prostate): 0.62 µM
TGI (786-0 renal): 0.699 µM
TGI (NCI-H522 lung): 1100 nM
TGI (A498 renal): 0.183 µM
TGI (U251 CNS): 0.894 µM
TGI (MDA-N): 0.817 µM
TGI (HCT-116 colon): 0.887 µM
TGI (NCI-H23 lung): 1400 nM
TGI (SK-MEL-28 melanoma): 1.55 µM
TGI (UO-31 renal): 0.576 µM
TGI (HOP-92 NSCLC): 836 nM
TGI (M14 melanoma): 0.409 µM
TGI (CAKI-1 renal): 1.52 µM
TGI (MDA-MB-231 breast): 0.264 µM
TGI (SF-539 CNS): 1.52 µM
TGI (RXF 393 renal): 1.07 µM
TGI (ACHN renal): 0.557 µM
TGI (OVCAR-5 ovarian): 0.597 µM
TGI (OVCAR-8 ovarian): 1.15 µM
TGI (IGROV1 ovarian): 2.4 µM

C=Cc1ccccc1C1C(C(=O)OCC)=C(C)N=C2OC(C(=O)OC)C(=O)N21 (stereo unspecified)
TGI (NCI/ADR-RES ovarian): > 100 µM
TGI (MCF7 breast): > 100 µM
TGI (RPMI-8226 leukemia): > 100 µM
TGI (MDA-MB-435): > 100 µM
TGI (UACC-257 melanoma): > 100 µM
TGI (SK-OV-3 ovarian): > 100 µM
TGI (A549 NSCLC): > 100 µM
TGI (SN12C renal): > 100 µM
TGI (LOX IMVI melanoma): > 100000 nM
TGI (HCT-15 colon): > 100 µM
TGI (BT-549 breast): > 100 µM
TGI (HT29 colon): > 100 µM
TGI (T-47D breast): > 100 µM
TGI (SK-MEL-2 melanoma): > 100 µM
TGI (KM12 colon): > 100 µM
TGI (NCI-H460 lung): > 100 µM
TGI (UACC-62 melanoma): > 100 µM
TGI (SW-620 colon): > 100 µM
TGI (CCRF-CEM leukemia): > 100 µM
TGI (SF-268 CNS): > 100 µM
TGI (COLO 205 colon): > 100 µM
TGI (HL-60(TB) leukemia): > 100 µM
TGI (NCI-H226 lung): > 100000 nM
TGI (MALME-3M melanoma): > 100 µM
TGI (OVCAR-3 ovarian): > 100 µM
TGI (MOLT-4 leukemia): > 100 µM
TGI (SNB-75 CNS): > 100 µM
TGI (OVCAR-4 ovarian): > 100000 nM
TGI (HOP-62 NSCLC): > 100 µM
TGI (EKVX NSCLC): > 100 µM
TGI (K-562 leukemia): > 100 µM
TGI (SF-295 CNS): > 100 µM
TGI (SR leukemia): > 100 µM
TGI (DU-145 prostate): > 100 µM
TGI (SNB-19 CNS): > 100 µM
TGI (SK-MEL-5 melanoma): > 100 µM
TGI (HCC-2998 colon): > 100 µM
TGI (PC-3 prostate): > 100 µM
TGI (786-0 renal): > 100 µM
TGI (NCI-H522 lung): > 100000 nM
TGI (A498 renal): > 100 µM
TGI (U251 CNS): > 100 µM
TGI (MDA-N): > 100 µM
TGI (HCT-116 colon): > 100 µM
TGI (NCI-H23 lung): > 100000 nM
TGI (SK-MEL-28 melanoma): > 100 µM
TGI (UO-31 renal): > 100 µM
TGI (HOP-92 NSCLC): > 100000 nM
TGI (M14 melanoma): > 100 µM
TGI (CAKI-1 renal): > 100 µM
TGI (MDA-MB-231 breast): > 100 µM
TGI (SF-539 CNS): > 100 µM
TGI (RXF 393 renal): > 100 µM
TGI (ACHN renal): > 100 µM
TGI (OVCAR-5 ovarian): > 100 µM
TGI (TK-10 renal): > 100 µM
TGI (OVCAR-8 ovarian): > 100 µM
TGI (IGROV1 ovarian): > 100 µM
